According to patent US20260193293A1, “PEPTIDES CAPABLE OF INHIBITING PROTEIN-PROTEIN INTERACTIONS AT GABAB1A SUBUNIT AND USES THEREOF” (UNIVERSITY OF COPENHAGEN, priority 2022, published 2026):
Like-named read-outs stand apart in the source and are kept apart here. Non-standard residues stand in square brackets, D forms with d. Residues, ends and D or L forms follow the SMILES beside them. Phe(4-tBu) = CC(C)(C)c1ccc(C[C@H](N)C(=O)O)cc1; 1Nal = N[C@@H](Cc1cccc2ccccc12)C(=O)O; NMeD = CN[C@@H](CC(=O)O)C(=O)O

Target: Sushi domains (SD1/2) protein
Test: Fluorescence polarization (FP) competition assay with AJAP-1probe, calculated Ki
Type: binding
Conditions: read-out: Ki (nM) mean ± SEM
Summary of the method: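 Ki values were derived from IC50s (sigmoidal fits, ≥ triplicate), with probe Kd obtained by saturation titration of SD1/2. Peptides displaced a 25 nM TAMRA-labelled probe; polarization read at 530/580 nm in 1% BSA-containing PBS, pH 7.4, room temperature.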

[1] = Table 11, deep mutational scanning validation variants of AJAP-1WT
[2] = Table 8, Ala-, D-amino acids and N-methylation scans of AJAP-1WT
[3] = Table 4, truncation and elongation scans of APP epitope
[4] = Table 5, elongation and truncation scan of AJAP-1 binding epitope
[5] = Table 12, deep mutational scanning validation variants of PIANPWT
[6] = Table 16, ncAAs incorporated peptides

**Q.** How did the Ki [1] turn out when `CC[C@H](C)[C@H](NC(=O)[C@H](Cc1ccccc1)NC(=O)[C@H](CCC(=O)O)NC(=O)[C@@H](NC(=O)[C@H](CCC(=O)O)NC(C)=O)[C@@H](C)O)C(=O)N[C@@H](C)C(=O)N[C@@H](Cc1c[nH]c2ccccc12)C(=O)NCC(=O)N1CCC[C@H]1C(=O)N[C@H](C(=O)NCC(=O)N[C@@H](CC(=O)O)C(=O)N[C@@H](CCC(=O)O)C(=O)N1CCC[C@H]1C(N)=O)[C@@H](C)O` (Ac-ETEFIAWGPTGDEP-NH2) was run?
**A.** 41 ± 2 nM

**Q.** With `CC[C@H](C)[C@H](NC(=O)[C@H](Cc1ccccc1)NC(=O)[C@H](CCC(=O)O)NC(=O)[C@@H](NC(=O)[C@H](CCC(=O)O)NC(C)=O)[C@@H](C)O)C(=O)N[C@@H](C)C(=O)N[C@@H](Cc1c[nH]c2ccccc12)C(=O)NCC(=O)N1CCC[C@H]1C(=O)N[C@H](C(=O)NCC(=O)N[C@@H](CC(=O)O)C(=O)N[C@@H](CCC(=O)O)C(=O)N(C)[C@@H](CC(=O)O)C(N)=O)[C@@H](C)O` (Ac-ETEFIAWGPTGDE[NMeD]-NH2) as the compound, how does the Ki [2] read?
**A.** 29 ± 1 nM

**Q.** `CC[C@H](C)[C@H](NC(=O)[C@H](Cc1ccccc1)NC(=O)[C@H](CCC(=O)O)NC(=O)[C@@H](NC(=O)[C@H](CCC(=O)O)NC(C)=O)[C@@H](C)O)C(=O)N[C@@H](C)C(=O)N[C@@H](Cc1c[nH]c2ccccc12)C(=O)NCC(=O)N1CCC[C@H]1C(=O)N[C@H](C(=O)NCC(=O)N[C@@H](CC(=O)O)C(=O)N[C@@H](CCC(=O)O)C(=O)N[C@@H](CC(N)=O)C(N)=O)[C@@H](C)O` (Ac-ETEFIAWGPTGDEN-NH2) was tested. Which Ki [1] did it give?
**A.** 43 ± 2 nM

**Q.** With `CC(=O)N[C@@H](CC(=O)O)C(=O)N[C@@H](CO)C(=O)N[C@@H](CC(=O)O)C(=O)N[C@H](C(=O)N[C@@H](Cc1c[nH]c2ccccc12)C(=O)N[C@@H](Cc1c[nH]c2ccccc12)C(=O)NCC(=O)NCC(=O)N[C@@H](C)C(=O)N[C@@H](CC(=O)O)C(=O)N[C@H](C(=O)N[C@@H](CC(=O)O)C(=O)N[C@@H](Cc1ccc(O)cc1)C(=O)N[C@@H](C)C(=O)N[C@@H](CC(=O)O)C(N)=O)[C@@H](C)O)C(C)C` (Ac-DSDVWWGGADTDYAD-NH2) as the compound, how does the Ki [3] read?
**A.** 1500 ± 66 nM

**Q.** How did the Ki (Table 6, elongation and truncation scan of PIANP binding epitope) turn out when `CC[C@H](C)[C@H](NC(=O)[C@H](C)NC(=O)[C@H](Cc1c[nH]c2ccccc12)NC(=O)[C@@H]1CCCN1C(C)=O)C(=O)N[C@H](C(=O)N[C@@H](Cc1c[nH]c2ccccc12)C(=O)NCC(=O)N1CCC[C@H]1C(=O)N[C@H](C(=O)N[C@H](C(=O)N[C@@H](CO)C(N)=O)C(C)C)[C@@H](C)O)C(C)C` (Ac-PWAIVWGPTVS-NH2) was run?
**A.** 463 ± 10 nM

**Q.** How did the Ki (Table 3, SPOT hit validation and previously reported peptides) turn out when `CC[C@H](C)[C@H](NC(=O)[C@H](Cc1ccccc1)NC(=O)[C@H](CCC(=O)O)NC(=O)[C@@H](NC(=O)[C@H](CCC(=O)O)NC(C)=O)[C@@H](C)O)C(=O)N[C@@H](C)C(=O)N[C@@H](Cc1c[nH]c2ccccc12)C(=O)NCC(=O)N1CCC[C@H]1C(=O)N[C@H](C(=O)NCC(=O)N[C@@H](CC(=O)O)C(=O)N[C@@H](CCC(=O)O)C(=O)N[C@@H](CC(=O)O)C(=O)N[C@@H](C)C(N)=O)[C@@H](C)O` was run?
**A.** 39 ± 1 nM

**Q.** With `CC[C@H](C)[C@H](NC(=O)[C@H](Cc1ccccc1)NC(=O)[C@H](CCC(=O)O)NC(=O)[C@@H](NC(=O)[C@H](CCC(=O)O)NC(=O)[C@@H](NC(C)=O)[C@@H](C)O)[C@@H](C)O)C(=O)N[C@@H](C)C(=O)N[C@@H](Cc1c[nH]c2ccccc12)C(=O)NCC(=O)N1CCC[C@H]1C(N)=O` (Ac-TETEFIAWGP-NH2) as the compound, how does the Ki [4] read?
**A.** 574 ± 7 nM

**Q.** For `CC[C@H](C)[C@H](NC(=O)[C@H](Cc1ccccc1)NC(=O)[C@H](CCC(=O)O)NC(=O)[C@@H](NC(=O)[C@H](CCC(=O)O)NC(C)=O)[C@@H](C)O)C(=O)N[C@@H](C)C(=O)N[C@@H](Cc1c[nH]c2ccccc12)C(=O)NCC(=O)N1CCC[C@H]1C(=O)N[C@H](C(=O)NCC(=O)N[C@@H](CC(=O)O)C(=O)N1CCC[C@H]1C(=O)N[C@@H](CC(=O)O)C(N)=O)[C@@H](C)O` (Ac-ETEFIAWGPTGDPD-NH2), which Ki [1] is on record?
**A.** 34 ± 2 nM

**Q.** `CC[C@H](C)[C@H](NC(=O)[C@H](Cc1ccccc1)NC(=O)[C@H](CCC(=O)O)NC(=O)[C@@H](NC(=O)[C@H](CCC(=O)O)NC(C)=O)[C@@H](C)O)C(=O)N[C@@H](C)C(=O)N[C@@H](C)C(=O)NCC(=O)N1CCC[C@H]1C(=O)N[C@H](C(=O)NCC(=O)N[C@@H](CC(=O)O)C(=O)N[C@@H](CCC(=O)O)C(=O)N[C@@H](CC(=O)O)C(N)=O)[C@@H](C)O` [ETEFIAAGPTGDED] (Ac-ETEFIAAGPTGDED-NH2) was tested. Which Ki (Table 8, in μM) did it give?
**A.** > 6250 nM

**Q.** `CC[C@H](C)[C@H](NC(=O)[C@H](Cc1ccccc1)NC(=O)[C@H](Cc1c[nH]c2ccccc12)NC(=O)[C@@H]1CCCN1C(C)=O)C(=O)N[C@H](C(=O)N[C@@H](Cc1c[nH]c2ccccc12)C(=O)NCC(=O)N1CCC[C@H]1C(=O)N[C@H](C(=O)N[C@H](C(=O)N[C@@H](CO)C(=O)N[C@@H](CC(=O)O)C(=O)N[C@@H](CCC(=O)O)C(=O)N[C@@H](CC(=O)O)C(N)=O)C(C)C)[C@@H](C)O)C(C)C` [PWFIVWGPTVSDED] (Ac-PWFIVWGPTVSDED-NH2) was tested. Which Ki [5] did it give?
**A.** 192 ± 4 nM

**Q.** For `CC[C@H](C)[C@H](NC(=O)[C@H](C)NC(=O)[C@H](Cc1c[nH]c2ccccc12)NC(=O)[C@@H]1CCCN1C(C)=O)C(=O)N[C@H](C(=O)N[C@@H](Cc1c[nH]c2ccccc12)C(=O)NCC(=O)N1CCC[C@H]1C(=O)N[C@H](C(=O)N[C@@H](CC(=O)O)C(=O)N[C@@H](CO)C(=O)N[C@@H](CCCNC(=N)N)C(=O)N[C@@H](CCC(=O)O)C(=O)N[C@@H](CC(=O)O)C(N)=O)[C@@H](C)O)C(C)C` [PWAIVWGPTDSRED] (Ac-PWAIVWGPTDSRED-NH2), which Ki [5] is on record?
**A.** 417 ± 6 nM

**Q.** For `CC(=O)N[C@@H](CCC(=O)O)C(=O)N[C@@H](CC(=O)O)C(=O)N[C@@H](CC(=O)O)C(=O)N[C@@H](CO)C(=O)N[C@@H](CC(=O)O)C(=O)N[C@H](C(=O)N[C@@H](Cc1c[nH]c2ccccc12)C(=O)N[C@@H](Cc1c[nH]c2ccccc12)C(=O)N[C@@H](Cc1cccc2ccccc12)C(=O)NCC(=O)N[C@@H](C)C(=O)N[C@@H](CC(=O)O)C(=O)N[C@H](C(=O)N[C@@H](CC(=O)O)C(N)=O)[C@@H](C)O)C(C)C` (Ac-EDDSDVWW[1Nal]GADTD-NH2), which Ki [6] is on record?
**A.** 114 ± 1 nM

**Q.** With `CC[C@H](C)[C@H](NC(=O)[C@H](C)NC(=O)[C@H](CCC(=O)O)NC(=O)[C@@H](NC(=O)[C@H](CCC(=O)O)NC(C)=O)[C@@H](C)O)C(=O)N[C@@H](C)C(=O)N[C@@H](Cc1c[nH]c2ccccc12)C(=O)NCC(=O)N1CCC[C@H]1C(=O)N[C@H](C(=O)NCC(=O)N[C@@H](CC(=O)O)C(=O)N[C@@H](CCC(=O)O)C(=O)N[C@@H](CC(=O)O)C(N)=O)[C@@H](C)O` [ETEAIAWGPTGDED] (Ac-ETEAIAWGPTGDED-NH2) as the compound, how does the Ki [2] read?
**A.** 688 ± 11 nM

**Q.** `CC(=O)N[C@@H](CCC(=O)O)C(=O)N[C@@H](CCC(=O)O)C(=O)N[C@@H](CC(=O)O)C(=O)N[C@@H](CC(=O)O)C(=O)N[C@@H](CO)C(=O)N[C@@H](CC(=O)O)C(=O)N[C@H](C(=O)N[C@@H](Cc1c[nH]c2ccccc12)C(=O)N[C@@H](Cc1c[nH]c2ccccc12)C(=O)NCC(=O)NCC(=O)N[C@@H](C)C(=O)N[C@@H](CC(=O)O)C(=O)N[C@H](C(=O)N[C@@H](CC(=O)O)C(N)=O)[C@@H](C)O)C(C)C` (Ac-EEDDSDVWWGGADTD-NH2) was tested. Which Ki [3] did it give?
**A.** 341 ± 10 nM

**Q.** With `CC[C@H](C)[C@H](NC(=O)[C@H](Cc1ccccc1)NC(=O)[C@H](CCC(=O)O)NC(=O)[C@@H](NC(=O)[C@H](CCC(=O)O)NC(=O)[C@@H](NC(C)=O)[C@@H](C)O)[C@@H](C)O)C(=O)N[C@@H](C)C(=O)N[C@@H](Cc1c[nH]c2ccccc12)C(=O)NCC(N)=O` (Ac-TETEFIAWG-NH2) as the compound, how does the Ki [4] read?
**A.** 2470 ± 170 nM

**Q.** “EDDS(Buphe)VWWGGADTD (Ac-EDDS[Phe(4-tBu)]VWWGGADTD-NH2)” was tested. Which Ki [6] did it give?
**A.** 269 ± 3 nM
